The test system of one assay is E. coli K88. Briefly: Antimicrobial effect of C6, C8 and C10 on E. coli K88 in acidified feed suspension (gastric simulation). Type of assay: cell-based. Particulars: 20% feed suspension pH 4.0. The method, then:
In this example the anti-microbial activity of C6 and/or C8 and/or C10 MCFA against E. coli K88 was evaluated. The preparation of the test solution was as follows. to 1 kg feed (composition Table 6) an exactly determined quantity of E. coli K 88 was added. Subsequently, a suspension of 20% feed and 80% physiologic solution (0,85% saline) was created. To simulate the 20%-suspension in a gastric environment, a pH of 4.0 with 0.1 N HCl was established.
The acidified suspension was distributed in samples of 100 ml. Test substances were added in different concentrations as mentioned in table 7.
A microbial count at t=0 was executed. Samples were incubated during 3 h at 37° C. Samples were removed after 3 h and pH and microbial count were determined. The E. coli strains were counted on a Coli ID medium (Bio Mérieux, 42017).
The planned observations were: • a. Microbial count of control sample (blank) on t=0 • b. Microbial count of control sample (blank) and treatments on t=3 h. Table 8 depicts the calculated results proving the effectiveness of the anti-microbial effectiveness in the stomach of the different MCFA

In assay [1] the test system is Campylobacter jejuni VC 5, VC 6 and VC 7 strains. The assay is described as follows: Effect of MCFA on growth and survival of Campylobacter sp. isolated from poultry caecum. Type of assay: cell-based. Particulars: medium pH 5.0; for antimicrobial activity against Campylobacter strains (CFU/ml, FIGS. 1-9): micro-aerobic, tested concentrations, 0 and 180 minutes; for relative antimicrobial effect on the tested Campylobacter strains: comparison between MCFA. The method, then: In this example, the MIC values of different MCFA against Campylobacter sp. isolated from poultry caecum were determined.
Three tenfold dilutions of a 10% suspension of three types of MCFA's (C6, C8 and C10) were prepared in distilled water. To obtain the desired concentrations, 1.5, 0.75 and 0.36 ml of these dilutions were pipetted in petri dishes and carefully mixed with 15 ml molten growth medium. A suitable fermentation medium was used with a pH of 5.0.
Isolated Campylobacter strains were grown in suitable fermentation medium and incubated at 37° C. under micro-aerobic conditions by evacuating 80% of the normal atmosphere and introducing a gas mixture of 8% CO2, 8% H2 and 84% N2 into the jar. Inocula were prepared by diluting the cultures in buffered saline to a density of 0.5 on the McFarland turbidity scale and diluted 40-fold before inoculating. Plates were seeded with inoculum. Control plates of media without the product were inoculated at the end of the procedure. All plates were incubated at 37° C. under appropriate atmosphere. Readings were performed after 48 h. Campylobacter was counted after incubation.
These figures represent the number of colony forming units (CFU)/ml of Campylobacter jejuni VC 5 strain (FIGS. 1, 4, 7), Campylobacter jejuni VC 6 strain (FIGS. 2, 5, 8), and Campylobacter jejuni VC 7 strain (FIGS. 3, 6, 9) at various concentrations of MCFA and at two different time points (0 and 180 minutes).

The mark [2] stands for this setting: 0.06% test substance, T = 3 h at 37° C.
Setting [3] is: 0.125% test substance, T = 3 h at 37° C.
[4] abbreviates: 0.250% test substance, T = 3 h at 37° C.
The mark [5] stands for this setting: 0.500% test substance, T = 3 h at 37° C.

Consider `CCCCCC(=O)O` [C6, caproic acid], for which the Microbial count with E. coli K88 (0.06% test substance, T = 0 h) is reported as 5.708 Log (CFU/g); with E. coli K88 (setting [2]), 4.160 Log (CFU/g); in the assay on E. coli K88 (0.125% test substance, T = 0 h), 5.700 Log (CFU/g); in the assay on E. coli K88 (setting [3]), “Total inhibition”; with E. coli K88 (0.250% test substance, T = 0 h) it was 4.920 Log (CFU/g); with E. coli K88 (setting [4]), “Total inhibition”. Further, the Microbial count result is reported as “Total inhibition” in the assay with E. coli K88 (0.500% test substance, T = 0 h) and “Total inhibition” with E. coli K88 (setting [5]). In addition, the “antimicrobial activity against Campylobacter strains (CFU/ml, FIGS. 1-9)” value (“antimicrobial activity” for short) in assay [1] is recorded as “show antimicrobial activities”.
On to `CCCCCCCC(=O)O` [C8, caprylic acid], for which the Microbial count in the assay with E. coli K88 (0.06% test substance, T = 0 h) is 5.649 Log (CFU/g); in the assay on E. coli K88 (setting [2]) it was “Total inhibition”; in the assay with E. coli K88 (0.125% test substance, T = 0 h) it was 5.415 Log (CFU/g); with E. coli K88 (setting [3]), “Total inhibition”; in the assay with E. coli K88 (0.250% test substance, T = 0 h) it was “Total inhibition”; in the assay with E. coli K88 (setting [4]) it was “Total inhibition”. Also, the Microbial count result in the assay on E. coli K88 (0.500% test substance, T = 0 h) is “Total inhibition”; in the assay with E. coli K88 (setting [5]), “Total inhibition”. The “relative antimicrobial effect on the tested Campylobacter strains” value in assay [1] is reported as “stronger antimicrobial effect compared to C6”. Besides, in assay [1], the “antimicrobial activity” value is on record as “show antimicrobial activities”.
Turning to `CCCCCCCCCC(=O)O` [C10, capric acid], the Microbial count with E. coli K88 (0.06% test substance, T = 0 h) is given as 6.964 Log (CFU/g); in the assay with E. coli K88 (setting [2]), 6.854 Log (CFU/g); in the assay with E. coli K88 (0.125% test substance, T = 0 h), 6.927 Log (CFU/g); in the assay on E. coli K88 (setting [3]), 6.707 Log (CFU/g); in the assay with E. coli K88 (0.250% test substance, T = 0 h) it was 6.966 Log (CFU/g); with E. coli K88 (setting [4]), 4.708 Log (CFU/g). Moreover, the Microbial count with E. coli K88 (0.500% test substance, T = 0 h) is on record as 6.816 Log (CFU/g); with E. coli K88 (setting [5]) it was “Total inhibition”. The “relative antimicrobial effect on the tested Campylobacter strains” value in assay [1] is “stronger antimicrobial effect compared to C8”. Further, the “antimicrobial activity” value in assay [1] is “show antimicrobial activities”.

Values taken from patent US8962683B2, “Medium chain fatty acids applicable as anti-microbial agents” (Nutrition Sciences NV, priority 2004, dated 2015).
